Reference: patent US20240059691A1 (KALVISTA PHARMACEUTICALS LIMITED, priority 2020, published 2024)

How the values were obtained:
Format in all cases: biochemical
Thrombin = Thrombin (Homo sapiens (Human), UniProt P00734); experiment: Determination of related protease inhibition: Thrombin (fluorogenic substrate at Km); details: 25° C.
Method in brief: (§1)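 Fluorescence release from a Km-level fluorogenic substrate, read for 5 min at 25 °C, gave the linear rate per minute for each inhibitor concentration. Rates were converted to % of uninhibited human enzyme activity; IC50 = inhibitor concentration producing 50% inhibition.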

Plasma Kallikrein = Plasma Kallikrein (Homo sapiens (Human), UniProt P03952); experiment: Determination of related protease inhibition: Plasma Kallikrein (fluorogenic substrate at Km); details: 25° C., read-out: IC50 (human PKal)
Method in brief: as §1

Human Factor XIIa = Human Factor XIIa (Homo sapiens (Human), UniProt P00748); experiment: Determination of FXIIa inhibition (fluorogenic substrate H-DPro-Phe-Arg-AFC, IC50 assay); details: substrate H-DPro-Phe-Arg-AFC at Km, 25° C.; class scale A-G
Method in brief: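 IC50 derived from % remaining activity, taken as the linear fluorescence rate over a 5 min read at 25° C. Substrate H-DPro-Phe-Arg-AFC was used at its Km (Michaelis-Menten) with human FXIIa and serial compound dilutions, 25° C.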

FXa = FXa (Homo sapiens (Human), UniProt P00742); experiment: Determination of related protease inhibition: FXa (fluorogenic substrate at Km); details: 25° C.
Method in brief: as §1

FXIa = FXIa (Homo sapiens (Human), UniProt P03951); experiment: Determination of related protease inhibition: FXIa (fixed substrate concentration of 100 μM); details: 25° C.
Experimental: Determination of Related Protease Inhibition
In vitro inhibition of related proteases was determined using an ([…] assay based on standard literature methods (see e.g. Shori et al., Biochem. Pharmacol., 1992, 43, 1209; Bouckaert et al., European Journal of Medicinal Chemistry 110 (2016) 181). Human serine protease enzymes Plasma Kallikrein, KLK1, FXa, Plasmin, Thrombin and Trypsin were assayed for enzymatic activity using an appropriate fluorogenic substrate at Km concentration, FXIa at fixed substrate concentration of 100 μM, and various concentrations of the test compound. Protease activity was measured by monitoring the accumulation of liberated fluorescence from the substrate over […]. The linear rate of fluorescence increase per minute was expressed as percentage (%) activity. IC50 values were calculated as the concentration of inhibitor giving 50% inhibition of the uninhibited enzyme activity (100%).

KLK1 = KLK1 (Homo sapiens (Human), UniProt P06870); experiment: Determination of related protease inhibition: KLK1 (fluorogenic substrate at Km); details: 25° C.
Method in brief: as §1

Sequence of FXa (P00742 235-488): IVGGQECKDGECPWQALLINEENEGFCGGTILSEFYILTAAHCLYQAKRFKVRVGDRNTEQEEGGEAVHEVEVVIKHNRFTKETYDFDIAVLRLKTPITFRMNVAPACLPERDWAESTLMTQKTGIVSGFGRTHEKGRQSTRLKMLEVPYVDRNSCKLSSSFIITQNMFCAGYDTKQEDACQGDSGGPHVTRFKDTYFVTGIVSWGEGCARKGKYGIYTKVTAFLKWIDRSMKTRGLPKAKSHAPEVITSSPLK
Sequence of FXa (P00742 41-179 partner): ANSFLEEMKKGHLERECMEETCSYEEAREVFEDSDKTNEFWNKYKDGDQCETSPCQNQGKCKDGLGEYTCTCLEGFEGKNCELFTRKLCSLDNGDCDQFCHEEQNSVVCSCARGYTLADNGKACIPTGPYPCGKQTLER
Sequence of Human Factor XIIa (P00748 373-615): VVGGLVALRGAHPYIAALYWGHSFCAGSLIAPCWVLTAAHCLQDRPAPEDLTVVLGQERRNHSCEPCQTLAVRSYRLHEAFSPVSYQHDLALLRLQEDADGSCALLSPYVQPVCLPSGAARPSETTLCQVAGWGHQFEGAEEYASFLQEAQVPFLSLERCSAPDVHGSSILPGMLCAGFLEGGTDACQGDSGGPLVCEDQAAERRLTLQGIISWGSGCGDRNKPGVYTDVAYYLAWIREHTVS
Sequence of FXIa (P03951 388-625): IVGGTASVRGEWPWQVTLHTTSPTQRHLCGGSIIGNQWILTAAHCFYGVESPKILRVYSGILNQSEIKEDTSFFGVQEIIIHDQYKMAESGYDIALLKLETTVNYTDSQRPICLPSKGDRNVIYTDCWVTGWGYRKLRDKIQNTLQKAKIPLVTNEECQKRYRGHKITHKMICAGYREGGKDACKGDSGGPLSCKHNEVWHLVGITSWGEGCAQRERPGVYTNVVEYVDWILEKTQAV
Sequence of FXIa (P03951 19-387 partner): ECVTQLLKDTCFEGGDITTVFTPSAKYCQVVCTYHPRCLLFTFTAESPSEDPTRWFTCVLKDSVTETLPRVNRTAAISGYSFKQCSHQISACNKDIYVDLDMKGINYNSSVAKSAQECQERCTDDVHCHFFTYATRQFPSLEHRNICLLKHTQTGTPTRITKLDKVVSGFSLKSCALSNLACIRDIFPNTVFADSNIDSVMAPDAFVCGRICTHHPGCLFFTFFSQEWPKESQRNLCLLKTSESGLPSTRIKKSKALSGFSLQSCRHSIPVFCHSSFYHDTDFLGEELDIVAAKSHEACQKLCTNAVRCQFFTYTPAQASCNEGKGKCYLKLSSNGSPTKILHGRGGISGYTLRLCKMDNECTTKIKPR
Sequence of Plasma Kallikrein (P03952 391-638): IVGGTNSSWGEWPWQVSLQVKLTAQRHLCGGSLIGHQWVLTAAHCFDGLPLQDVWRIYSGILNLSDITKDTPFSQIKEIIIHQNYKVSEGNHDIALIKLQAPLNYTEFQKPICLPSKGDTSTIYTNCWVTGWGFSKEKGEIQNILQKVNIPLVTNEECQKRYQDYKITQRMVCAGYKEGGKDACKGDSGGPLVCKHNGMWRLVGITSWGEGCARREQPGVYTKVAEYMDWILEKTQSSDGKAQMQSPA
Sequence of Plasma Kallikrein (P03952 20-390 partner): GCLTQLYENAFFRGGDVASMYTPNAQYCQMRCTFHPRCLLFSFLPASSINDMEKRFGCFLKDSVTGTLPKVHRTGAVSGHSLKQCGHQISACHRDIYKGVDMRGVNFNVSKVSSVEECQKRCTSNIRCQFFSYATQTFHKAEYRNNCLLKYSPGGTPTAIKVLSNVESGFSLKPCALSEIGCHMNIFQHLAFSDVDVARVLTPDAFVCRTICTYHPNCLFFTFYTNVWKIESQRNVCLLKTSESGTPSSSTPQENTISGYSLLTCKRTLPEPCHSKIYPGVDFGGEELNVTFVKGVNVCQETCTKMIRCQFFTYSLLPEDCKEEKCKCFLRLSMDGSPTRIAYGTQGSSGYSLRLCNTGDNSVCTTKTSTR
Sequence of KLK1 (P06870 25-262): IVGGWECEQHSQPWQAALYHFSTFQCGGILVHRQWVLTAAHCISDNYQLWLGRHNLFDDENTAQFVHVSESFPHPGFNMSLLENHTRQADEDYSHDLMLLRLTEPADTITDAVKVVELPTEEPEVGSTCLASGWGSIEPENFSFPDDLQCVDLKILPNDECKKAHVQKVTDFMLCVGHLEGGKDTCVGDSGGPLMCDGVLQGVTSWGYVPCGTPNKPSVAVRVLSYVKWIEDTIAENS

SMILES | IC50 (Thrombin) [µM] | IC50 (Plasma Kallikrein) [µM] | IC50 (Human Factor XIIa) [µM] | IC50 (FXa) [µM] | IC50 (FXIa) [µM] | IC50 (KLK1) [µM]
CN1CC2C[C@H]1C[C@H]2OCc1ccc(CNc2ccc3c(N)nccc3c2)c(F)c1 (single isomer, unassigned) [Example 2198, N6-(2-fluoro-4-((((4S*,5R*)-2-methyl-2-azabicyclo[2.2.1]heptan-5-yl)oxy)methyl)benzyl)isoquinoline-1,6-diamine] | 10 to 40 | 3 to 10 | 0.1 to 0.3 | 3 to 10 | > 20 | –
CN1CC2C[C@@H]1C[C@H]2OCc1ccc(CNc2ccc3c(N)nccc3c2)c(F)c1 (single isomer, unassigned) [Example 2199, N6-(2-fluoro-4-((((4R*,5R*)-2-methyl-2-azabicyclo[2.2.1]heptan-5-yl)oxy)methyl)benzyl)isoquinoline-1,6-diamine] | 10 to 40 | 3 to 10 | 0.01 to 0.1 | 3 to 10 | > 20 | –
CC(C)N1C[C@H]2C[C@@H]1CN2CCc1ccc(CNc2cccc3c(N)nccc23)c(F)c1 (stereo in doubt) [Example 2213, N5-[[2-fluoro-4-[2-[(1R,4R)-5-isopropyl-2,5-diazabicyclo[2.2.1]heptan-2-yl]ethyl]phenyl]methyl]isoquinoline-1,5-diamine] | > 40 | 10 to 40 | 0.1 to 0.3 | > 40 | > 40 | 10 to 40
CN1CCC(COc2ccc(CNc3ccc4c(N)nccc4c3)cn2)CC1 [Example 1005, N6-((6-((1-methylpiperidin-4-yl)methoxy)pyridin-3-yl)methyl)isoquinoline-1,6-diamine] | 10 to 40 | 3 to 10 | 0.1 to 0.3 | 3 to 10 | > 40 | –
Nc1nccc2cc(NCc3ccc(OCC4CCn5ccnc5C4)nc3)ccc12 (stereo not shown) [Example 1006, N6-((6-((5,6,7,8-tetrahydroimidazo[1,2-a]pyridin-7-yl)methoxy)pyridin-3-yl)methyl)isoquinoline-1,6-diamine] | 3 to 10 | 1 to 3 | 0.1 to 0.3 | 1 to 3 | > 40 | –
CN1CCC(COc2ccc(CNc3ccc4cnccc4c3)cn2)CC1 [Example 1008, N-((6-((1-methylpiperidin-4-yl)methoxy)pyridin-3-yl)methyl)isoquinolin-6-amine] | > 20 | 10 to 40 | 3 to 10 | > 20 | > 20 | –
CN1CCC(COc2ccc(CNc3cccc4c(N)nccc34)cn2)CC1 [Example 1009, N5-((6-((1-methylpiperidin-4-yl)methoxy)pyridin-3-yl)methyl)isoquinoline-1,5-diamine] | > 40 | 3 to 10 | 0.1 to 0.3 | > 40 | > 40 | –
CCN1CCC(COc2ccc(CNc3ccc4c(N)nccc4c3)cn2)CC1 [Example 1010, 6-N-({6-[(1-ethylpiperidin-4-yl)methoxy]pyridin-3-yl}methyl)isoquinoline-1,6-diamine] | 10 to 40 | 3 to 10 | 0.1 to 0.3 | 10 to 40 | > 40 | –
CC(C)N1CCC(COc2ccc(CNc3ccc4c(N)nccc4c3)cn2)CC1 [Example 1012, N6-((6-((1-isopropylpiperidin-4-yl)methoxy)pyridin-3-yl)methyl)isoquinoline-1,6-diamine] | 3 to 10 | 1 to 3 | 0.1 to 0.3 | 10 to 40 | > 20 | –
CN1CCC(COc2ncc(CNc3ccc4c(N)nccc4c3)cn2)CC1 [Example 1013, 6-N-({2-[(1-methylpiperidin-4-yl)methoxy]pyrimidin-5-yl}methyl)isoquinoline-1,6-diamine] | 3 to 10 | 3 to 10 | 0.1 to 0.3 | 3 to 10 | > 20 | –
CN1CCC(CCc2ccc(CNc3ccc4c(N)nccc4c3)cc2)CC1 [Example 2177, N6-(4-(2-(1-methylpiperidin-4-yl)ethyl)benzyl)isoquinoline-1,6-diamine] | 3 to 10 | 1 to 3 | 0.1 to 0.3 | 3 to 10 | > 40 | –
CN1CCC(CCc2ccc(CNc3cccc4c(N)nccc34)cc2)CC1 [Example 2178, 5-N-({4-[2-(1-methylpiperidin-4-yl)ethyl]phenyl}methyl)isoquinoline-1,5-diamine] | > 40 | 10 to 40 | 0.01 to 0.1 | > 40 | > 40 | –
CN1CCC(OCc2ccc(CNc3ccc4c(N)nccc4c3)cc2)CC1 [Example 2185, N6-(4-(((1-methylpiperidin-4-yl)oxy)methyl)benzyl)isoquinoline-1,6-diamine] | 3 to 10 | 3 to 10 | 0.1 to 0.3 | 3 to 10 | > 40 | –
CN1CCC(OCc2ccc(CNc3ccc4c(N)nccc4c3)c(Cl)c2)CC1 [Example 2192, N6-(2-chloro-4-(((1-methylpiperidin-4-yl)oxy)methyl)benzyl)isoquinoline-1,6-diamine] | 3 to 10 | 3 to 10 | 0.1 to 0.3 | 1 to 3 | > 40 | –
CN1CCC(OCc2ccc(CNc3ccc4cnccc4c3)cc2)CC1 [Example 2193, N-(4-(((1-methylpiperidin-4-yl)oxy)methyl)benzyl)isoquinolin-6-amine] | > 20 | > 20 | 3 to 10 | > 20 | > 20 | –
CN1CCC(OCc2ccc(CNc3ccc4c(N)nccc4c3)cc2)C(F)(F)C1 (stereo not shown) [Example 2194, N6-(4-(((3,3-difluoro-1-methylpiperidin-4-yl)oxy)methyl)benzyl)isoquinoline-1,6-diamine] | 10 to 40 | 10 to 40 | 1 to 3 | 10 to 40 | > 40 | –
Nc1nccc2cc(NCc3ccc(COC4CCN(C5CC5)CC4)cc3)ccc12 [Example 2195, 6-N-[(4-{[(1-cyclopropylpiperidin-4-yl)oxy]methyl}phenyl)methyl]isoquinoline-1,6-diamine] | 10 to 40 | 3 to 10 | 0.3 to 1 | 10 to 40 | > 40 | –
Nc1nccc2cc(NCc3ccc(COC4CCN(CC(F)F)CC4)cc3)ccc12 [Example 2196, 6-N-{[4-({[1-(2,2-difluoroethyl)piperidin-4-yl]oxy}methyl)phenyl]methyl}isoquinoline-1,6-diamine] | 10 to 40 | 10 to 40 | 1 to 3 | 10 to 40 | > 40 | –
CCN1CCC(OCc2ccc(CNc3cccc4c(N)nccc34)c(F)c2)CC1 [Example 2201, 5-N-[(4-{[(1-ethylpiperidin-4-yl)oxy]methyl}-2-fluorophenyl)methyl]isoquinoline-1,5-diamine] | > 20 | 10 to 40 | 0.01 to 0.1 | > 20 | > 20 | –
CCN1CCC(OCc2ccc(CNc3ccc4c(N)nccc4c3)c(F)c2)CC1 [Example 2202, 6-N-[(4-{[(1-ethylpiperidin-4-yl)oxy]methyl}-2-fluorophenyl)methyl]isoquinoline-1,6-diamine] | 3 to 10 | 1 to 3 | 0.1 to 0.3 | 3 to 10 | > 20 | –
CN1CCC(CCn2cc(CNc3ccc4c(N)nccc4c3)cn2)CC1 [Example 3254, N6-((1-(2-(1-methylpiperidin-4-yl)ethyl)-1H-pyrazol-4-yl)methyl)isoquinoline-1,6-diamine] | 3 to 10 | 3 to 10 | 0.3 to 1 | 3 to 10 | > 20 | –
CN1CCC(COc2cc(CNc3ccc4c(N)nccc4c3)ccn2)CC1 [Example 4261, N6-((2-((1-methylpiperidin-4-yl)methoxy)pyridin-4-yl)methyl)isoquinoline-1,6-diamine] | 3 to 10 | 3 to 10 | 0.01 to 0.1 | 0.3 to 1 | > 20 | –
Nc1nccc2c(NCc3ccnc(OCC4CCn5ccnc5C4)c3)cccc12 (stereo not shown) [Example 4298, N5-((2-((5,6,7,8-tetrahydroimidazo[1,2-a]pyridin-7-yl)methoxy)pyridin-4-yl)methyl)isoquinoline-1,5-diamine] | > 40 | > 40 | 0.01 to 0.1 | – | 10 to 40 | 3 to 10
Nc1nccc2cc(NCc3ccnc(-c4cccc(CN5CCCC5)c4)c3)ccc12 [Example 5434, N6-((2-(3-(pyrrolidin-1-ylmethyl)phenyl)pyridin-4-yl)methyl)isoquinoline-1,6-diamine] | 1 to 3 | 1 to 3 | 1 to 3 | 1 to 3 | > 40 | –
